Article PMC5694373 (European journal of pharmaceutical sciences : official …, 2017)
Like-named read-outs stand apart in the source and are kept apart here.

Experiments:
[1] = cited from earlier work; for human half-life: reported human half-life simulated in the HFIM
[2] = tested on: wild-type MX/09 influenza; assay type: cell-based; conditions: oseltamivir 75 mg Q12 and/or zanamivir 600 mg Q12 exposures, alone or in combination, throughout the study

Row | Molecule | oral bioavailability ([1]; ref GlaxoSmithKline, 2009) | human half-life ([1]; ref GlaxoSmithKline, 2009) | human half-life ([1]; ref Doucette and Aoki, 2001) | effect on viral replication relative to no-treatment control [2]
1 | CC(=O)N[C@H]1[C@H]([C@H](O)[C@H](O)CO)OC(C(=O)O)=C[C@@H]1N=C(N)N [Zanamivir, zanamivir] | poor oral bioavailability | 2.5 h | – | –
2 | Oseltamivir carboxylate | – | – | 8 h | suppressed the replication of MX/09
